Source: the NIST ThermoML archive (doi:10.1016/j.jct.2010.08.021)
Several values for one entry are separate records, joined by “and”; a condition that tells them apart may be missing. Identical values can stand only once.

Assay: mn = molality of the nth substance listed, in mol/kg
Conditions: 101 kPa, Liquid; for speed of sound: Sing-around technique in a fixed-path interferometer; for mass density: Vibrating tube method

N.N.O=C(O)CC(O)(CC(=O)O)C(=O)O [ammonium citrate, dibasic] + O
Conditions	mass density	speed of sound
288.15 K, m1 = 0.0059	999.706 kg/m3	1467.4 m/s
288.15 K, m1 = 0.0071	999.822 kg/m3	1467.6 m/s
288.15 K, m1 = 0.0087	999.992 kg/m3	1467.9 m/s
288.15 K, m1 = 0.0129	1000.42 kg/m3	1468.5 m/s
288.15 K, m1 = 0.0177	1000.9 kg/m3	1469.1 m/s
288.15 K, m1 = 0.0222	1001.37 kg/m3	1469.7 m/s
288.15 K, m1 = 0.0266	1001.8 kg/m3	1470.2 m/s
288.15 K, m1 = 0.0311	1002.26 kg/m3	1470.9 m/s
288.15 K, m1 = 0.0354	1002.69 kg/m3	1471.5 m/s
288.15 K, m1 = 0.0423	1003.38 kg/m3	1472.4 m/s
288.15 K, m1 = 0.0446	1003.62 kg/m3	1472.8 m/s
288.15 K, m1 = 0.0468	1003.84 kg/m3	1473.1 m/s
288.15 K, m1 = 0.0492	1004.09 kg/m3	1473.4 m/s
288.15 K, m1 = 0.0562	1004.75 kg/m3	1474.3 m/s
288.15 K, m1 = 0.0645	1005.59 kg/m3	1475.4 m/s
288.15 K, m1 = 0.0748	1006.57 kg/m3	1476.8 m/s
288.15 K, m1 = 0.0797	1007.07 kg/m3	1477.4 m/s
288.15 K, m1 = 0.09	1008.08 kg/m3	1478.8 m/s
288.15 K, m1 = 0.5	1044.77 kg/m3 and 1044.77 kg/m3 and 1044.73 kg/m3	1529.2 m/s and 1529 m/s and 1529 m/s
288.15 K, m1 = 0.988	1082.62 kg/m3	1585.1 m/s
288.15 K, m1 = 0.997	1082.58 kg/m3	1584.9 m/s
288.15 K, m1 = 0.998	1082.63 kg/m3	1585 m/s
293.15 K, m1 = 0.0059	998.799 kg/m3	1483.5 m/s
293.15 K, m1 = 0.0071	998.916 kg/m3	1483.7 m/s
293.15 K, m1 = 0.0087	999.084 kg/m3	1483.9 m/s
293.15 K, m1 = 0.0129	999.5 kg/m3	1484.5 m/s
293.15 K, m1 = 0.0177	999.976 kg/m3	1485.1 m/s
293.15 K, m1 = 0.0222	1000.44 kg/m3	1485.7 m/s
293.15 K, m1 = 0.0266	1000.87 kg/m3	1486.2 m/s
293.15 K, m1 = 0.0311	1001.32 kg/m3	1486.8 m/s
293.15 K, m1 = 0.0354	1001.75 kg/m3	1487.4 m/s
293.15 K, m1 = 0.0423	1002.43 kg/m3	1488.3 m/s
293.15 K, m1 = 0.0446	1002.67 kg/m3	1488.7 m/s
293.15 K, m1 = 0.0468	1002.88 kg/m3	1488.9 m/s
293.15 K, m1 = 0.0492	1003.13 kg/m3	1489.3 m/s
293.15 K, m1 = 0.0562	1003.78 kg/m3	1490.1 m/s
293.15 K, m1 = 0.0645	1004.61 kg/m3	1491.2 m/s
293.15 K, m1 = 0.0748	1005.58 kg/m3	1492.5 m/s
293.15 K, m1 = 0.0797	1006.07 kg/m3	1493.1 m/s
293.15 K, m1 = 0.09	1007.07 kg/m3	1494.4 m/s
293.15 K, m1 = 0.5	1043.38 kg/m3 and 1043.38 kg/m3 and 1043.34 kg/m3	1542.8 m/s and 1542.6 m/s and 1542.7 m/s
293.15 K, m1 = 0.988	1080.92 kg/m3	1596.5 m/s
293.15 K, m1 = 0.997	1080.88 kg/m3	1596.4 m/s
293.15 K, m1 = 0.998	1080.93 kg/m3	1596.5 m/s
298.15 K, m1 = 0.0059	997.633 kg/m3	1497.7 m/s
298.15 K, m1 = 0.0071	997.747 kg/m3	1497.9 m/s
298.15 K, m1 = 0.0087	997.913 kg/m3	1498.1 m/s
298.15 K, m1 = 0.0129	998.325 kg/m3	1498.7 m/s
298.15 K, m1 = 0.0177	998.796 kg/m3	1499.3 m/s
298.15 K, m1 = 0.0222	999.256 kg/m3	1499.9 m/s
298.15 K, m1 = 0.0266	999.681 kg/m3	1500.3 m/s
298.15 K, m1 = 0.0311	1000.12 kg/m3	1501 m/s
298.15 K, m1 = 0.0354	1000.55 kg/m3	1501.5 m/s
298.15 K, m1 = 0.0423	1001.23 kg/m3	1502.4 m/s
298.15 K, m1 = 0.0446	1001.46 kg/m3	1502.7 m/s
298.15 K, m1 = 0.0468	1001.67 kg/m3	1503 m/s
298.15 K, m1 = 0.0492	1001.92 kg/m3	1503.3 m/s
298.15 K, m1 = 0.0562	1002.56 kg/m3	1504.1 m/s
298.15 K, m1 = 0.0645	1003.38 kg/m3	1505.2 m/s
298.15 K, m1 = 0.0748	1004.34 kg/m3	1506.4 m/s
298.15 K, m1 = 0.0797	1004.83 kg/m3	1507 m/s
298.15 K, m1 = 0.09	1005.81 kg/m3	1508.2 m/s
298.15 K, m1 = 0.5	1041.8 kg/m3 and 1041.8 kg/m3 and 1041.76 kg/m3	1554.8 m/s and 1554.6 m/s and 1554.6 m/s
298.15 K, m1 = 0.988	1079.09 kg/m3	1606.5 m/s
298.15 K, m1 = 0.997	1079.04 kg/m3	1606.4 m/s
298.15 K, m1 = 0.998	1079.09 kg/m3	1606.5 m/s
303.15 K, m1 = 0.0059	996.228 kg/m3	1510.1 m/s
303.15 K, m1 = 0.0071	996.341 kg/m3	1510.3 m/s
303.15 K, m1 = 0.0087	996.506 kg/m3	1510.5 m/s
303.15 K, m1 = 0.0129	996.916 kg/m3	1511 m/s
303.15 K, m1 = 0.0177	997.381 kg/m3	1511.6 m/s
303.15 K, m1 = 0.0222	997.837 kg/m3	1512.2 m/s
303.15 K, m1 = 0.0266	998.259 kg/m3	1512.6 m/s
303.15 K, m1 = 0.0311	998.698 kg/m3	1513.2 m/s
303.15 K, m1 = 0.0354	999.119 kg/m3	1513.8 m/s
303.15 K, m1 = 0.0423	999.789 kg/m3	1514.6 m/s
303.15 K, m1 = 0.0446	1000.02 kg/m3	1514.9 m/s
303.15 K, m1 = 0.0468	1000.23 kg/m3	1515.1 m/s
303.15 K, m1 = 0.0492	1000.48 kg/m3	1515.4 m/s
303.15 K, m1 = 0.0562	1001.11 kg/m3	1516.2 m/s
303.15 K, m1 = 0.0645	1001.92 kg/m3	1517.2 m/s
303.15 K, m1 = 0.0748	1002.88 kg/m3	1518.4 m/s
303.15 K, m1 = 0.0797	1003.36 kg/m3	1519 m/s
303.15 K, m1 = 0.09	1004.34 kg/m3	1520.2 m/s
303.15 K, m1 = 0.5	1040.04 kg/m3 and 1040.04 kg/m3 and 1040 kg/m3	1565.1 m/s and 1564.9 m/s and 1564.9 m/s
303.15 K, m1 = 0.988	1077.11 kg/m3	1615 m/s
303.15 K, m1 = 0.997	1077.07 kg/m3	1614.9 m/s
303.15 K, m1 = 0.998	1077.11 kg/m3	1615 m/s
308.15 K, m1 = 0.0059	994.605 kg/m3	1520.8 m/s
308.15 K, m1 = 0.0071	994.721 kg/m3	1520.9 m/s
308.15 K, m1 = 0.0087	994.88 kg/m3	1521.1 m/s
308.15 K, m1 = 0.0129	995.288 kg/m3	1521.6 m/s
308.15 K, m1 = 0.0177	995.753 kg/m3	1522.2 m/s
308.15 K, m1 = 0.0222	996.203 kg/m3	1522.8 m/s
308.15 K, m1 = 0.0266	996.623 kg/m3	1523.2 m/s
308.15 K, m1 = 0.0311	997.058 kg/m3	1523.8 m/s
308.15 K, m1 = 0.0354	997.475 kg/m3	1524.3 m/s
308.15 K, m1 = 0.0423	998.143 kg/m3	1525.1 m/s
308.15 K, m1 = 0.0446	998.37 kg/m3	1525.4 m/s
308.15 K, m1 = 0.0468	998.58 kg/m3	1525.6 m/s
308.15 K, m1 = 0.0492	998.825 kg/m3	1525.9 m/s
308.15 K, m1 = 0.0562	999.453 kg/m3	1526.7 m/s
308.15 K, m1 = 0.0645	1000.26 kg/m3	1527.7 m/s
308.15 K, m1 = 0.0748	1001.21 kg/m3	1528.8 m/s
308.15 K, m1 = 0.0797	1001.68 kg/m3	1529.4 m/s
308.15 K, m1 = 0.09	1002.65 kg/m3	1530.5 m/s
308.15 K, m1 = 0.5	1038.13 kg/m3 and 1038.12 kg/m3 and 1038.08 kg/m3	1573.9 m/s and 1573.7 m/s and 1573.7 m/s
308.15 K, m1 = 0.988	1075.01 kg/m3	1622.1 m/s
308.15 K, m1 = 0.997	1074.96 kg/m3	1622 m/s
308.15 K, m1 = 0.998	1075.01 kg/m3	1622.1 m/s
313.15 K, m1 = 0.0059	992.787 kg/m3	1529.8 m/s
313.15 K, m1 = 0.0071	992.9 kg/m3	1530 m/s
313.15 K, m1 = 0.0087	993.06 kg/m3	1530.2 m/s
313.15 K, m1 = 0.0129	993.463 kg/m3	1530.7 m/s
313.15 K, m1 = 0.0177	993.924 kg/m3	1531.3 m/s
313.15 K, m1 = 0.0222	994.373 kg/m3	1531.8 m/s
313.15 K, m1 = 0.0266	994.79 kg/m3	1532.2 m/s
313.15 K, m1 = 0.0311	995.224 kg/m3	1532.8 m/s
313.15 K, m1 = 0.0354	995.638 kg/m3	1533.3 m/s
313.15 K, m1 = 0.0423	996.299 kg/m3	1534.1 m/s
313.15 K, m1 = 0.0446	996.527 kg/m3	1534.3 m/s
313.15 K, m1 = 0.0468	996.735 kg/m3	1534.6 m/s
313.15 K, m1 = 0.0492	996.978 kg/m3	1534.8 m/s
313.15 K, m1 = 0.0562	997.604 kg/m3	1535.6 m/s
313.15 K, m1 = 0.0645	998.406 kg/m3	1536.6 m/s
313.15 K, m1 = 0.0748	999.345 kg/m3	1537.7 m/s
313.15 K, m1 = 0.0797	999.818 kg/m3	1538.2 m/s
313.15 K, m1 = 0.09	1000.78 kg/m3	1539.3 m/s
313.15 K, m1 = 0.5	1036.06 kg/m3 and 1036.02 kg/m3	1581.2 m/s and 1581 m/s and 1581 m/s
313.15 K, m1 = 0.988	1072.78 kg/m3	1628 m/s
313.15 K, m1 = 0.997	1072.73 kg/m3	1627.9 m/s
313.15 K, m1 = 0.998	1072.78 kg/m3	1628 m/s

O [water] + N.N.O=C(O)CC(O)(CC(=O)O)C(=O)O
Conditions	mass density [kg/m3]
283.15 K, m2 = 0	999.699

O [water] + NCC(=O)O
Conditions	mass density [kg/m3]
283.15 K, m2 = 0	999.699

O [water] + N[C@@H](CO)C(=O)O
Conditions	mass density [kg/m3]
283.15 K, m2 = 0	999.699
